According to US12077501B2, “Compounds and compositions for intracellular delivery of agents” (ModernaTX, Inc., priority 2017, dated 2024):

Key:
[1] = Lipid clearance: % dose remaining in liver of CD-1 mice; type: in vivo; details: intravenous, 0.5 mg/kg, CD-1 mouse, Table 8a
Description: In contrast, hEPO expression in rats induced by administration of a nanoparticle composition including a compound according to one of formulae (I), (Ia1)-(Ia6), (Ib), (II), (IIa), (III), and (IIIa) was substantially […] than that measured for MC3. […] Tables 7c and 7d show additional protein expressions and clearance data from compositions with various compounds disclosed herein as compared to with MC3. Tables 7e, 7f and 7g show hEPO expression data in CD-1 mice at a dose of 0.5 mpk.

[2] = pKa of nanoparticle compositions; type: physicochemical
[3] = Lipid purity change after storage in EtOH for 96 h at 25 or 37 °C; type: physicochemical
Protocol: Nanoparticle compositions including a therapeutic and/or prophylactic agent can be optimized according to the selection of a compound according to one of formulae (I), (Ia1)-(Ia10), (Ib), (Ic), (Id), (Id1)-(Id10), (Ie), (Ie1)-(Ie6), (II), (IIa), (III), and (IIIa), the selection of additional lipids, the amount of each lipid in the lipid component, and the wt:wt ratio of the lipid component to the therapeutic and/or prophylactic agent, as described herein. Initial studies were performed to compare the delivery efficiency of nanoparticle compositions including various compounds according to one of formulae (I), (Ia1)-(Ia10), (Ib), (Ic), (Id), (Id1)-(Id10), (Ie), (Ie1)-(Ie6), (II), (IIa), (III), and (IIIa). The cationic lipid MC3 is a current standard in the art. Also determined was the stability of nanoparticles of the disclosure, i.e., the purity after storage in EtOH for 96h at 25° C. or 37° C. (Table Id).

[4] = Encapsulation efficiency of RNA (QUANT-IT RIBOGREEN RNA assay); type: physicochemical; details: Table 1c; nanoparticle compositions
Protocol: For nanoparticle compositions including an RNA, a QUANT-IT™ RIBOGREEN® RNA assay (Invitrogen Corporation Carlsbad, CA) can be used to evaluate the encapsulation of an RNA by the nanoparticle composition. The samples are diluted to a concentration of approximately 5 μg/mL in a TE buffer solution (10 mM Tris-HCl, 1 mM EDTA, pH 7.5). 50 μL of the diluted samples are transferred to a polystyrene 96 well plate and either 50 μL of TE buffer or 50 μL of a 2% Triton X-100 solution is added to the wells. The plate is incubated at a temperature of 37° C. for 15 minutes. The RIBOGREEN® reagent is diluted 1:100 in TE buffer, and 100 μL of this solution is added to each well. The fluorescence intensity can be measured using a fluorescence plate reader (Wallac Victor 1420 Multilablel Counter; Perkin Elmer, Waltham, MA) at an excitation wavelength of, for example, about 480 nm and an emission wavelength of, for example, about 520 nm. The fluorescence values of the reagent blank are subtracted from that of each of the samples and the percentage of free RNA is determined by dividing the fluorescence intensity of the intact sample (without addition of Triton X-100) by the fluorescence value of the disrupted sample (caused by the addition of Triton X-100).

[5] = Particle size and polydispersity index of nanoparticle compositions (Zetasizer Nano ZS); type: physicochemical; details: Table 1c; nanoparticle compositions
Protocol: A Zetasizer Nano ZS (Malvem Instruments Ltd, Malvem, Worcestershire, UK) can be used to determine the particle size, the polydispersity index (PDI) and the zeta potential of the nanoparticle compositions in 1×PBS in determining particle size and 15 mM PBS in determining zeta potential.

Row | % Dose Remaining 6 hr [1] | % Dose Remaining 24 hr [1] | pKa ([2]; Table 1b) | Lipid % change purity in EtOH, 25° C., 96 h [3] | Lipid % change purity in EtOH, 37° C., 96 h [3] | pKa ([2]; Table 1c) | EE (%) [4] | PDI [5] | Size (nm) [5] | SMILES
1 | 52.40% | 53.65% | 6.74 | – | – | – | – | – | – | CCCCCCCCCN(CCCCCCCCC)CCCC1CCN(C(=O)CCN(CCCCCCCCC)CCN(CCCCCCCCC)CCCCCCCCC)CC1 [Compound 85, 3-((2-(Dinonylamino)ethyl)(nonyl)amino)-1-(4-(3-(dinonylamino)propyl)piperidin-1-yl)propan-1-one]
2 | 0.16% | 0.12% | 7.58 | 8.1% | 20.8% | – | – | – | – | CCCCCCCCCN(CCCOC(=O)CCCCC)CCC(=O)N1CCN(C(=O)CCN(CCCCCCCCC)CCN(CCCCCCCCC)CCCCCCCCC)CC1 [Compound 86, 3-((3-(4-(3-((2-(Dinonylamino)ethyl)(nonyl)amino)propanoyl)piperazin-1-yl)-3-oxopropyl)(nonyl)amino)propyl hexanoate]
3 | 0.07% | 0.05% | 6.79 | – | – | – | – | – | – | CCCCCCCCCN(CCCOC(=O)CCCCC)CCCC1CCN(C(=O)CCN(CCCCCCCCC)CCN(CCCCCCCCC)CCCCCCCCC)CC1 [Compound 87, 3-((3-(1-(3-((2-(Dinonylamino)ethyl)(nonyl)amino)propanoyl)piperidin-4-yl)propyl)(nonyl)amino)propyl Hexanoate]
4 | – | 9.10% | – | 8.46% | 15.47% | 5.17 | 96.9% | 0.24 | 70.3 nm | CCCCCCCCCN(CCCCCCCCC)CCN(CCCCCCCCC)CCOC(=O)C1CCN(C(=O)CN(CCCCCCCCC)CCCCCCCCC)CC1 [Compound 129, 2-((2-(Dinonylamino)ethyl)(nonyl)amino)ethyl 1-(dinonylglycyl)piperidine-4-carboxylate]
5 | – | 2.33% | – | 3.54% | 4.46% | 6.90 | 98.0% | 0.23 | 84.9 nm | CCCCCCCCCN(CCCCCCCCC)CCN(CCCCCCCCC)CC(=O)N1CCN(C(=O)CN(CCCCCCCCC)CC(C)COC(=O)CCCCC)CC1 (centres unmarked) [Compound 130, 3-((2-(4-(N-(2-(Dinonylamino)ethyl)-N-nonylglycyl)piperazin-1-yl)-2-oxoethyl)(nonyl)amino)-2-methylpropyl hexanoate]
6 | – | 80.27% | – | 11.96% | 12.43% | 7.02 | 98.5% | 0.17 | 85.4 nm | CCCCCCCCCN(CCCCCCCCC)CCN(CCCCCCCCC)CC(=O)N1CCN(C(=O)CN(CCCCCCCCC)CCCOC(=O)CC(C)CCC)CC1 (centres unmarked) [Compound 131, 3-((2-(4-(N-(2-(Dinonylamino)ethyl)-N-nonylglycyl)piperazin-1-yl)-2-oxoethyl)(nonyl)amino)propyl 3-methylhexanoate]
7 | – | 0.81% | – | 1.84% | 5.54% | 6.49 | 98.6% | 0.23 | 83.1 nm | CCCCCCCCCN(CCCCCCCCC)CCN(CCCCCCCCC)CC(=O)N1CCC(CCN(CCCCCCCCC)CC(C)COC(=O)CCCCC)CC1 (centres unmarked) [Compound 132, 3-((2-(1-(N-(2-(Dinonylamino)ethyl)-N-nonylglycyl)piperidin-4-yl)ethyl)(nonyl)amino)-2-methylpropyl hexanoate]
8 | – | 13.02% | – | – | – | 6.58 | – | – | – | CCCCCCCCCN(CCCOC(=O)CC(C)CCC)CCC1CCN(C(=O)CN(CCCCCCCCC)CCN(CCCCCCCCC)CCCCCCCCC)CC1 (centres unmarked) [Compound 133, 3-((2-(1-(N-(2-(Dinonylamino)ethyl)-N-nonylglycyl)piperidin-4-yl)ethyl)(nonyl)amino)propyl 3-methylhexanoate]
